These results are taken from patent US20100273733A1, “HIV Treatment” (priority 2009, published 2010).

Data set [1] concerns Jurkat (T-lymphocyte) cells. Kind of data set: Selective toxicity, cell viability by MTT or XTT, uninfected control cells. The format is cell-based. As to the method: For purposes of the following experiments and unless otherwise specified, the standard DEAE/Dex concentration is about 6.0 to about 6.9 molar DEAE/0.1 molar Dex.
Selective Toxicity. Wells with 10^6 Jurkat (T-lymphocyte) cells were infected with HIV at Multiplicities of Infection (MOI—the number of viral particles vs. infectable cells) of 0.1 or 0.01 for 4 hours. The cells are treated with Dex, DEAE, DEAE/DEX or control for 48 hours. Cell viability was assayed by MTT or XTT method. In the control (uninfected) cells, standard concentrations of Dex, DEAE and DEAE/Dex are non-toxic (within standard deviation).
For orientation: Tetrazolium assays rely on reduction of a dye to a coloured formazan, in cell work by metabolically active cells.

The test system of data set [2] is HIV. Kind of data set: HIV replication in JC53 cells, viral core antigen P24 antibody kit. The format is cell-based. Conditions: Dex alone from greater or equal to 0.1 μmolar, effect topped out. As to the method: In another experiment, JC53 cells (HeLa cancer cells engineered to express CD4 and CCR5 receptors for HIV) are treated with HIV and the relevant agents to determine if DEAE inhibit HIV replication, using commercial antibody kit for viral core antigen P24 to assess level of virus production. […] The virus appears able to propagate and infect other cells. Dex alone indicated a 50% HIV activity inhibition from greater or equal to 0.1 μmolar. […] Similarly, 0.02 μmolar AZT alone has 40% inhibition of HIV replication.

Consider `C[C@@H]1C[C@H]2[C@@H]3CCC4=CC(=O)C=C[C@]4(C)[C@@]3(F)[C@@H](O)C[C@]2(C)[C@@]1(O)C(=O)CO` [Dex, dexamethasone], for which the “toxicity (cell viability)” value in data set [1] is “non-toxic”. This compound also returned an HIV activity inhibition in data set [2] of 50%.
